Data: patent publication US8999982B2, “Pharmaceutically active compounds as Axl inhibitors” (Lead Discovery Center GmbH, priority 2010, dated 2015)
Counter-ions that a name gives are not always drawn.

Tests used:
Axl [1] = molecular target: T1, Axl (Homo sapiens (Human), UniProt P30530); experiment: Axl binding assay
Procedure: Binding of the tracer to the kinase is detected using an EU-labeled anti-tag antibody. […] Binding of an inhibitor to the kinase competes for binding with the tracer, resulting in a loss of FRET-signal. At first a compound according to formula (I) was diluted in 20 mM Hepes pH 8.0, 1 mM DTT, 10 mM MgCl2 and 0.01% Brij35.

Axl [2] = molecular target: T1, Axl; experiment: Cellular Axl phosphorylation assay; type: cell-based; details: HEK293 cells transfected with Axl cDNA, 1 hour incubation
Procedure: 3. Cellular Axl Phosphorylation Assay:
HEK293 embryonal kidney fibroblasts were transfected in 96 wells with a plasmid containing Axl cDNA. As transfection reagent Superfect (Qiagen) was used. Transfection of the sole vector backbone served as negative control of Axl expression. After overnight incubation the cellular supernatant was replaced with fresh medium. On the following day the Axl-expressing cells were incubated for 1 hour with a compound according to formula (I) at the suitable concentrations. […] The mesoscale technology was used for quantification.

T1 sequence (P30530 26-894): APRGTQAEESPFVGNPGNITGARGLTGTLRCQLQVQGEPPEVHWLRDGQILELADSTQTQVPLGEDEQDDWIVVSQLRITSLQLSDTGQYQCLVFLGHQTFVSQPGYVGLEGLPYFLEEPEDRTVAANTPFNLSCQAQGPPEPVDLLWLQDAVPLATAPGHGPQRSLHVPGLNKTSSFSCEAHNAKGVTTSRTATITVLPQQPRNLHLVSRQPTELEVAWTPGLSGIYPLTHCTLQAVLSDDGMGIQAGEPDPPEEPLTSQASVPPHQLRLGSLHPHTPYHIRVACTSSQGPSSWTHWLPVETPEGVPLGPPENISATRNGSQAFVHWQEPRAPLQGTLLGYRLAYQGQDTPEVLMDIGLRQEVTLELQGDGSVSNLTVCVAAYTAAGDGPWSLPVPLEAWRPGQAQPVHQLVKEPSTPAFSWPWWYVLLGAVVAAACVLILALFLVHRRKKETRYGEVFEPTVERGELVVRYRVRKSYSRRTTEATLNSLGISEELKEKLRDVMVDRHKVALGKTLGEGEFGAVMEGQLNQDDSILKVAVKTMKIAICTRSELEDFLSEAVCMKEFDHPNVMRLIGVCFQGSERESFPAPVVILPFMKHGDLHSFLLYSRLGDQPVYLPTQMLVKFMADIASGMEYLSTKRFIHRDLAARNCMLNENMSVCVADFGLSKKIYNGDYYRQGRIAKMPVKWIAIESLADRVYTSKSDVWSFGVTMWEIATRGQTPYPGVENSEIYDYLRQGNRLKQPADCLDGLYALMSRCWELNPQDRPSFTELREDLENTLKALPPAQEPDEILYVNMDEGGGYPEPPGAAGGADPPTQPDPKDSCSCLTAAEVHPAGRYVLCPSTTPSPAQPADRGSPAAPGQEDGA

| SMILES | IC50 (Axl [1]) | IC50 (Axl [2]) |
| --- | --- | --- |
| COc1cc2c(Oc3ccc(NC(=O)c4nn(-c5ccc(F)cc5)cc4OCC4CC4)cc3F)ccnc2cc1OCCCN1CCNCC1 [Example 64, 4-(cyclopropylmethoxy)-N-[3-fluoro-4-[[6-methoxy-7-(3-piperazin-1-ylpropoxy)-4-quinolyl]oxy]phenyl]-1-(4-fluorophenyl)pyrazole-3-carboxamide trifluoroacetic acid salt] | < 500 nM | < 500 nM |
| CCOc1cn(-c2ccc(F)cc2)nc1C(=O)Nc1ccc(Oc2ccnc3cc(OCCCN4CCNCC4)c(OC)cc23)c(F)c1 [Example 65, 4-ethoxy-N-[3-fluoro-4-[[6-methoxy-7-(3-piperazin-1-ylpropoxy)-4-quinolyl]oxy]phenyl]-1-(4-fluorophenyl)pyrazole-3-carboxamide] | < 500 nM | < 500 nM |
| COc1cc2c(Oc3ccc(NC(=O)c4nn(-c5ccc(F)cc5)cc4OC)cc3F)ccnc2cc1OCCCN1CCNCC1 [Example 66, N-[3-fluoro-4-[[6-methoxy-7-(3-piperazin-1-ylpropoxy)-4-quinolyl]oxy]phenyl]-1-(4-fluorophenyl)-4-methoxy-pyrazole-3-carboxamide] | < 500 nM | < 500 nM |
| COc1cc2c(Oc3ccc(NC(=O)c4nn(-c5ccc(F)cc5)cc4OC(C)C)cc3F)ccnc2cc1OCCCN1CCNCC1 [Example 67, N-[3-fluoro-4-[[6-methoxy-7-(3-piperazin-1-ylpropoxy)-4-quinolyl]oxy]phenyl]-1-(4-fluorophenyl)-4-isopropoxy-pyrazole-3-carboxamide] | < 500 nM | < 500 nM |
| CCOc1cn(-c2ccc(F)cc2Cl)nc1C(=O)Nc1ccc(Oc2ccnc3cc(OCCCN4CCNCC4)c(OC)cc23)c(F)c1 [Example 68, 1-(2-chloro-4-fluoro-phenyl)-4-ethoxy-N-[3-fluoro-4-[[6-methoxy-7-(3-piperazin-1-ylpropoxy)-4-quinolyl]oxy]phenyl]pyrazole-3-carboxamide] | < 500 nM | < 500 nM |
| CCOc1cn(-c2ccc(F)cc2C)nc1C(=O)Nc1ccc(Oc2ccnc3cc(OCCCN4CCNCC4)c(OC)cc23)c(F)c1 [Example 69, 4-ethoxy-N-[3-fluoro-4-[[6-methoxy-7-(3-piperazin-1-ylpropoxy)-4-quinolyl]oxy)phenyl]-1-(4-fluoro-2-methyl-phenyl)pyrazole-3-carboxamide] | < 500 nM | < 500 nM |
| COCCOc1cn(-c2ccc(F)cc2)nc1C(=O)Nc1ccc(Oc2ccnc3cc(OCCCN4CCNCC4)c(OC)cc23)c(F)c1 [Example 70, N-[3-fluoro-4-[[6-methoxy-7-(3-piperazin-1-ylpropoxy)-4-quinolyl]oxy]phenyl]-1-(4-fluorophenyl)-4-(2-methoxyethoxy)pyrazole-3-carboxamide] | < 500 nM | < 500 nM |
| COc1cc2c(Oc3ccc(NC(=O)c4nn(-c5ccc(F)cc5)cc4OCC4CCN(C)C4)cc3F)ccnc2cc1OCCCN1CCNCC1 (centres unmarked) [Example 71, N-[3-fluoro-4-[[6-methoxy-7-(3-piperazin-1-ylpropoxy)-4-quinolyl]oxy]phenyl]-1-(4-fluorophenyl)-4-[(1-methylpyrrolidin-3-yl)methoxy]pyrazole-3-carboxamide] | < 500 nM | 500 to 5000 nM |
| COc1cc2c(Oc3ccc(NC(=O)c4csc(-c5ccccc5)n4)cc3F)ccnc2cc1OCCCN1CCNCC1 [Example 72, N-[3-fluoro-4-[[6-methoxy-7-(3-piperazin-1-ylpropoxy)-4-quinolyl]oxy]phenyl]-2-phenyl-thiazole-4-carboxamide] | < 500 nM | < 500 nM |
| COc1cc2c(Oc3ccc(NC(=O)c4nn(-c5ccc(F)cc5)cc4OC)cc3F)ccnc2cc1OCC1CCNCC1 [Example 73, N-[3-fluoro-4-[[6-methoxy-7-(4-piperidylmethoxy)-4-quinolyl]oxy]phenyl]-1-(4-fluorophenyl)-4-methoxy-pyrazole-3-carboxamide] | < 500 nM | < 500 nM |
| CCOc1cn(-c2ccc(F)cc2C)nc1C(=O)Nc1ccc(Oc2ccnc3cc(OCC4CCNCC4)c(OC)cc23)c(F)c1 [Example 74, 4-ethoxy-N-[3-fluoro-4-[[6-methoxy-7-(4-piperidylmethoxy)-4-quinolyl]oxy]phenyl]-1-(4-fluoro-2-methyl-phenyl)pyrazole-3-carboxamide] | < 500 nM | < 500 nM |
| COc1cc2c(Oc3ccc(NC(=O)c4nn(-c5ccc(F)cc5)cc4OCC4CC4)cc3F)ccnc2cc1OCC1CCNCC1 [Example 75, 4-(cyclopropylmethoxy)-N-[3-fluoro-4-[[6-methoxy-7-(4-piperidylmethoxy)-4-quinolyl]oxy]phenyl]-1-(4-fluorophenyl)pyrazole-3-carboxamide] | < 500 nM | < 500 nM |
| COc1cc2c(Oc3ccc(NC(=O)c4nn(-c5ccc(F)cc5)cc4Br)cc3F)ccnc2cc1OCC1CCNCC1 [Example 76, 4-bromo-N-[3-fluoro-4-[[6-methoxy-7-(4-piperidylmethoxy)-4-quinolyl]oxy]phenyl]-1-(4-fluorophenyl)pyrazole-3-carboxamide] | < 500 nM | < 500 nM |
| COc1cc2c(Oc3ccc(NC(=O)c4nn(-c5ccc(F)cc5)cc4OCc4ccc(F)cc4)cc3F)ccnc2cc1OCC1CCNCC1 [Example 77, N-[3-fluoro-4-[[6-methoxy-7-(4-piperidylmethoxy)-4-quinolyl]oxy]phenyl]-1-(4-fluorophenyl)-4-[(4-fluorophenyl)methoxy]pyrazole-3-carboxamide] | < 500 nM | < 500 nM |
| COc1cc2c(Oc3ccc(NC(=O)c4cc(C)n(C(C)(C)C)n4)cc3F)ccnc2cc1OCC1CCNCC1 [Example 78, 1-tert-butyl-N-[3-fluoro-4-[[6-methoxy-7-(4-piperidylmethoxy)-4-quinolyl]oxy]phenyl]-5-methyl-pyrazole-3-carboxamide] | < 500 nM | < 500 nM |
| COc1cc2c(Oc3ccc(NC(=O)c4nc(-c5ccccc5)oc4C)cc3F)ccnc2cc1OCC1CCNCC1 [Example 80, N-[3-fluoro-4-[[6-methoxy-7-(4-piperidylmethoxy)-4-quinolyl]oxy]phenyl]-5-methyl-2-phenyl-oxazole-4-carboxamide] | < 500 nM | < 500 nM |
| COc1cc2c(Oc3ccc(NC(=O)c4csc(-c5ccccc5)n4)cc3F)ccnc2cc1OCC1CCNCC1 [Example 81, N-[3-fluoro-4-[[6-methoxy-7-(4-piperidylmethoxy)-4-quinolyl]oxy]phenyl]-2-phenyl-thiazole-4-carboxamide] | < 500 nM | 500 to 5000 nM |
| CCOc1cn(-c2ccc(F)cc2C)nc1C(=O)Nc1ccc(Oc2ccnc3cc(OCC4CCN(CC)CC4)c(OC)cc23)c(F)c1 [Example 82, 4-ethoxy-N-[4-[[7-[(1-ethyl-4-piperidyl)methoxy]-6-methoxy-4-quinolyl]oxy]-3-fluoro-phenyl]-1-(4-fluoro-2-methyl-phenyl)pyrazole-3-carboxamide] | < 500 nM | < 500 nM |
| CCOc1cn(-c2ccc(F)cc2C)nc1C(=O)Nc1ccc(Oc2ccnc3cc(OCC4CCN(CC(C)C)CC4)c(OC)cc23)c(F)c1 [Example 83, 4-ethoxy-N-[3-fluoro-4-[[7-[(1-isobutyl-4-piperidyl)methoxy]-6-methoxy-4-quinolyl]oxy]phenyl]-1-(4-fluoro-2-methyl-phenyl)pyrazole-3-carboxamide] | < 500 nM | < 500 nM |
